Results as given in ChEMBL document CHEMBL3991601, “The target landscape of clinical kinase drugs” (Science, 2017).
Activity calls are given as the source filed them. Rule as the data show it, for most assays here: actives have a measured Kd and inactives only a lower limit.

Key:
[1] = biological target: AP2-associated protein kinase 1 (Homo sapiens, UniProt Q2M2I8)
[2] = biological target: Serine/threonine-protein kinase B-raf (Homo sapiens, UniProt P15056)
[3] = biological target: Cyclin-dependent kinase 4 (Homo sapiens, UniProt P11802)
Cyclin-dependent kinase 4, sequence (P11802 whole entry): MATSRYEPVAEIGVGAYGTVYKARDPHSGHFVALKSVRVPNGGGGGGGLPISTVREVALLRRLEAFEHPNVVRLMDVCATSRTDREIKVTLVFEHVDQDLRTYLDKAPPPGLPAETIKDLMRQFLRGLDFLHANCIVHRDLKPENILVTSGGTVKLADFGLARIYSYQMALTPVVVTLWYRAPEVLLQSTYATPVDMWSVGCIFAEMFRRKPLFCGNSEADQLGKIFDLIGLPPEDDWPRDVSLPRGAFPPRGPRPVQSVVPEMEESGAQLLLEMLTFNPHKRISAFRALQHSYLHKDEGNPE

[4] = biological target: Tyrosine-protein kinase HCK (Homo sapiens, UniProt P08631)
Tyrosine-protein kinase HCK, sequence (P08631 whole entry): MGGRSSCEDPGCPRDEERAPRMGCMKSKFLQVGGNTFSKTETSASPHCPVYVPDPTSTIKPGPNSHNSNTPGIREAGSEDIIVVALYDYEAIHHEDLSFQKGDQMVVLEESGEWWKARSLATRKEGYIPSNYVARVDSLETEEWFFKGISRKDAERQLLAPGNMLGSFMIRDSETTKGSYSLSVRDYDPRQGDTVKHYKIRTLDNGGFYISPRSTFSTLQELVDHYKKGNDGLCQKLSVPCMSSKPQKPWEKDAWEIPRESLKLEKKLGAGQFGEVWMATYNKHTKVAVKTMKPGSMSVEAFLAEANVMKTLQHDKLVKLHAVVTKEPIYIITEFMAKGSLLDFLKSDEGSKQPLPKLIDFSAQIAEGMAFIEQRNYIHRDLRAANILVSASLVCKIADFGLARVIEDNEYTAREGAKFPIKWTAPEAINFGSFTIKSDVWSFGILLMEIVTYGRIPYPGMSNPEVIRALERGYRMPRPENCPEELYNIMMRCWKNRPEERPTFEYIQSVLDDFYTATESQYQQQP

[5] = biological target: T1, Dual specificity mitogen-activated protein kinase kinase 3 (Homo sapiens, UniProt P46734)
T1 sequence (P46734 whole entry): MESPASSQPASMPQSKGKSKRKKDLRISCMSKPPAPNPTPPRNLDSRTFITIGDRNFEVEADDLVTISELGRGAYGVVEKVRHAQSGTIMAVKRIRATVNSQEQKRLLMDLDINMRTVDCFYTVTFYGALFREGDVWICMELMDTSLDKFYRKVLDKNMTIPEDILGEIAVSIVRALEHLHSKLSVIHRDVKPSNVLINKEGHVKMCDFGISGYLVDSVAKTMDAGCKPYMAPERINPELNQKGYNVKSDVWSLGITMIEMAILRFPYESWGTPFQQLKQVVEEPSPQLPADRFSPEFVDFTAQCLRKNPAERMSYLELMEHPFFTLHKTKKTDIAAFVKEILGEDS

[6] = biological target: Mitogen-activated protein kinase kinase kinase kinase 1 (Homo sapiens, UniProt Q92918)
[7] = biological target: Mitogen-activated protein kinase kinase kinase kinase 4 (Homo sapiens, UniProt O95819)
Mitogen-activated protein kinase kinase kinase kinase 4, sequence (O95819 whole entry): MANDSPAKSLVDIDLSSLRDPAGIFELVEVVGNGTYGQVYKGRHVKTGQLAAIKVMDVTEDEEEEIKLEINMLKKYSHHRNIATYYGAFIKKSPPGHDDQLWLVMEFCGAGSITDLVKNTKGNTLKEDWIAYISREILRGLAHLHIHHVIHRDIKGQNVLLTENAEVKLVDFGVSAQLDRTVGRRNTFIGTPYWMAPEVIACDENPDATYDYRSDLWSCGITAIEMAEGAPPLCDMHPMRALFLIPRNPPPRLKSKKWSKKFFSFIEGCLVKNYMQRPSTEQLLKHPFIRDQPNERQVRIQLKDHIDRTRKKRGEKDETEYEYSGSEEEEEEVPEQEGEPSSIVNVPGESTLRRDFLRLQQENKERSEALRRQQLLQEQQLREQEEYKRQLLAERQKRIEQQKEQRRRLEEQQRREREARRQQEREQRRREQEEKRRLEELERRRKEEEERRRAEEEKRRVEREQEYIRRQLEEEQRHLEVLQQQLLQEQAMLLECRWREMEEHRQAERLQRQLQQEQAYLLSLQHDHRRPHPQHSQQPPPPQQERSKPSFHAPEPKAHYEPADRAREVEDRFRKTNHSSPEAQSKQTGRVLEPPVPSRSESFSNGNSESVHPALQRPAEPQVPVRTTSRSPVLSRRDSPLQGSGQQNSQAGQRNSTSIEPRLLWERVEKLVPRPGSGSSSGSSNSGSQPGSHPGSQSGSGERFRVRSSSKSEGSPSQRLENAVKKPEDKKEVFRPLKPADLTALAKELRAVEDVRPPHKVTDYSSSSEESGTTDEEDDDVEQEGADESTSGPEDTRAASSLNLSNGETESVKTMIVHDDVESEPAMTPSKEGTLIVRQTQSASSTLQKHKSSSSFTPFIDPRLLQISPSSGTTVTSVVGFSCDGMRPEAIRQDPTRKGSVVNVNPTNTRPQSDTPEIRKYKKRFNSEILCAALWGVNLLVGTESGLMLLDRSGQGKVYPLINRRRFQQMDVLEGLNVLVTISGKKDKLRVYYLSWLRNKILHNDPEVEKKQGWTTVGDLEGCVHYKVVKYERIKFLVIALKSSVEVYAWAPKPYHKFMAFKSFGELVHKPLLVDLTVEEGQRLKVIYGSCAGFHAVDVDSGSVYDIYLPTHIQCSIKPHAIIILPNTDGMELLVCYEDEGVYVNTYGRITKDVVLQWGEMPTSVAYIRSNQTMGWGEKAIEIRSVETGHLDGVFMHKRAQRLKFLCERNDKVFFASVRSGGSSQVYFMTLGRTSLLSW

[8] = biological target: Myosin light chain kinase, smooth muscle (Homo sapiens, UniProt Q15746)
Myosin light chain kinase, smooth muscle, sequence (Q15746 whole entry): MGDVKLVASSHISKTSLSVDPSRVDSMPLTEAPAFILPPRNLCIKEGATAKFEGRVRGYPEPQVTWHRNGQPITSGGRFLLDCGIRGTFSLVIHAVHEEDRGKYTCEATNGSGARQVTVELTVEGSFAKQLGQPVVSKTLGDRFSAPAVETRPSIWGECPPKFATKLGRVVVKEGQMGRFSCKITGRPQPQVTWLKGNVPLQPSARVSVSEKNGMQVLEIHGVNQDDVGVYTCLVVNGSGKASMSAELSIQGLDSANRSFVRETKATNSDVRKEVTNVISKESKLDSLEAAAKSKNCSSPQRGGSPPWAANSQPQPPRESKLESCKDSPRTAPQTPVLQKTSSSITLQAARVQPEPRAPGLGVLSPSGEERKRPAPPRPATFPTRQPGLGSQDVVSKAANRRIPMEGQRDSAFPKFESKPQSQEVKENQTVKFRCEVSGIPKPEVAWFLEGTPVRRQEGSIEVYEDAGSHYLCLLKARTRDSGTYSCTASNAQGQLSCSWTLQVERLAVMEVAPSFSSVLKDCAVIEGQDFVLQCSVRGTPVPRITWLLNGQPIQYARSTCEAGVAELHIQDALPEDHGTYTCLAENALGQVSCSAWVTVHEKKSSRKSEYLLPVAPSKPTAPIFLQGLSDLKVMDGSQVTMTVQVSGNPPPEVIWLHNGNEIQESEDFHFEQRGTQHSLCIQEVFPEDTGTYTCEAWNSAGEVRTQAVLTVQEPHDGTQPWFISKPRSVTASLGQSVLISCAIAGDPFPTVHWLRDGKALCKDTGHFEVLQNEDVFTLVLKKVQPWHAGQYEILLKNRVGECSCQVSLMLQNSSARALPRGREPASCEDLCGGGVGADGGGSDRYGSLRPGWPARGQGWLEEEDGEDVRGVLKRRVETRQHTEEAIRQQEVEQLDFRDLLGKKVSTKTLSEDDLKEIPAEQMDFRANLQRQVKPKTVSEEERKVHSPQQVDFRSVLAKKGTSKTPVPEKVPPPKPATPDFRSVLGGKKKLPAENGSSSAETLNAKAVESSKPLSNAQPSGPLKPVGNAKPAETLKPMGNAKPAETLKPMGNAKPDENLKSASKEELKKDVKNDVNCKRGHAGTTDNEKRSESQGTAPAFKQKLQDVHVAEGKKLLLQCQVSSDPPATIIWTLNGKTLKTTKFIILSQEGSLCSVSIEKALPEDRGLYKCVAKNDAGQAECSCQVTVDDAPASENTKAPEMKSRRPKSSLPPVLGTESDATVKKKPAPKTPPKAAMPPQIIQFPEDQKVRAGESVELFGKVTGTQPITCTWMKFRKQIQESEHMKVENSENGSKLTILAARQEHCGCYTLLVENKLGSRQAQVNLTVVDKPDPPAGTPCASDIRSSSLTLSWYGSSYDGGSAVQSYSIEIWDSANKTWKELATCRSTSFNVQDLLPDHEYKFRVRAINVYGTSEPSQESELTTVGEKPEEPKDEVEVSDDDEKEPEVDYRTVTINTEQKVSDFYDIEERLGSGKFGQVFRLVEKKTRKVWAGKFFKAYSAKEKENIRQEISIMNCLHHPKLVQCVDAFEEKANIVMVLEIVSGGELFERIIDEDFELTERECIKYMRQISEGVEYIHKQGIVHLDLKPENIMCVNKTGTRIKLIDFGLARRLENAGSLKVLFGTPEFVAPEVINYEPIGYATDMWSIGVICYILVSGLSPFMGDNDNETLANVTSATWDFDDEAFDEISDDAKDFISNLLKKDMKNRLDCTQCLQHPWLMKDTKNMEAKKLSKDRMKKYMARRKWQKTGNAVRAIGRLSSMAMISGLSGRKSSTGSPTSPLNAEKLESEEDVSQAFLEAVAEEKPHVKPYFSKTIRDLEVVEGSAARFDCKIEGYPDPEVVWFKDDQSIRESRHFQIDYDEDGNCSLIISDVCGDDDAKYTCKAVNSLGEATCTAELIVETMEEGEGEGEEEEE

[9] = biological target: T2, RNA cytidine acetyltransferase (Homo sapiens, UniProt Q9H0A0)
T2 sequence (Q9H0A0 whole entry): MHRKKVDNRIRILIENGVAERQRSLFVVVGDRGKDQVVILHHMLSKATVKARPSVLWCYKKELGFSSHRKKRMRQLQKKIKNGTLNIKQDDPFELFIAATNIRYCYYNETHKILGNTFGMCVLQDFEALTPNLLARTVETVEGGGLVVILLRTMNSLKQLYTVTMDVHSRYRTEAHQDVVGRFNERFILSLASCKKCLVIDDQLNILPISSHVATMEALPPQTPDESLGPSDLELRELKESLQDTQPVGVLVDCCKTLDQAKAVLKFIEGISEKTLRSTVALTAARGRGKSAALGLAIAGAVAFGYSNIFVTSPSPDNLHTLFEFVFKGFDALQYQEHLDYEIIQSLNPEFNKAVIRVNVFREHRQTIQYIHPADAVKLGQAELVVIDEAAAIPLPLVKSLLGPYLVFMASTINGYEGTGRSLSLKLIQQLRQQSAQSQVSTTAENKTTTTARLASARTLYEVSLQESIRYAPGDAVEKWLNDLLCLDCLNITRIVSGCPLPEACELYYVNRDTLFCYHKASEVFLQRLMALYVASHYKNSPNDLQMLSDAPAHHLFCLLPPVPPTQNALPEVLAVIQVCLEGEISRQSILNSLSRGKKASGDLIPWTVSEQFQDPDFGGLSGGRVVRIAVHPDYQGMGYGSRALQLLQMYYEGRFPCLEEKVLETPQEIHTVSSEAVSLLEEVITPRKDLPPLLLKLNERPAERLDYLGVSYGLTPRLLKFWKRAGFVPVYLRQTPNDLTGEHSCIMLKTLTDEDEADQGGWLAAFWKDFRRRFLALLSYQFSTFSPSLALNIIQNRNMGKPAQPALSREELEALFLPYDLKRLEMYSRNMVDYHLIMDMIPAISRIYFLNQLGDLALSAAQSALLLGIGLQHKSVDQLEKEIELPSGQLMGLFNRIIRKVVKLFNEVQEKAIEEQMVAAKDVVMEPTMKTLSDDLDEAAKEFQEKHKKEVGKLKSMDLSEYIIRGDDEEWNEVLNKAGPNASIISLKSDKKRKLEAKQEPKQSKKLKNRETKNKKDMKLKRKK

[10] = biological target: Receptor-interacting serine/threonine-protein kinase 2 (Homo sapiens, UniProt O43353)
[11] = biological target: T3, Serine/threonine-protein kinase TAO1 (Homo sapiens, UniProt Q7L7X3)
T3 sequence (Q7L7X3 whole entry): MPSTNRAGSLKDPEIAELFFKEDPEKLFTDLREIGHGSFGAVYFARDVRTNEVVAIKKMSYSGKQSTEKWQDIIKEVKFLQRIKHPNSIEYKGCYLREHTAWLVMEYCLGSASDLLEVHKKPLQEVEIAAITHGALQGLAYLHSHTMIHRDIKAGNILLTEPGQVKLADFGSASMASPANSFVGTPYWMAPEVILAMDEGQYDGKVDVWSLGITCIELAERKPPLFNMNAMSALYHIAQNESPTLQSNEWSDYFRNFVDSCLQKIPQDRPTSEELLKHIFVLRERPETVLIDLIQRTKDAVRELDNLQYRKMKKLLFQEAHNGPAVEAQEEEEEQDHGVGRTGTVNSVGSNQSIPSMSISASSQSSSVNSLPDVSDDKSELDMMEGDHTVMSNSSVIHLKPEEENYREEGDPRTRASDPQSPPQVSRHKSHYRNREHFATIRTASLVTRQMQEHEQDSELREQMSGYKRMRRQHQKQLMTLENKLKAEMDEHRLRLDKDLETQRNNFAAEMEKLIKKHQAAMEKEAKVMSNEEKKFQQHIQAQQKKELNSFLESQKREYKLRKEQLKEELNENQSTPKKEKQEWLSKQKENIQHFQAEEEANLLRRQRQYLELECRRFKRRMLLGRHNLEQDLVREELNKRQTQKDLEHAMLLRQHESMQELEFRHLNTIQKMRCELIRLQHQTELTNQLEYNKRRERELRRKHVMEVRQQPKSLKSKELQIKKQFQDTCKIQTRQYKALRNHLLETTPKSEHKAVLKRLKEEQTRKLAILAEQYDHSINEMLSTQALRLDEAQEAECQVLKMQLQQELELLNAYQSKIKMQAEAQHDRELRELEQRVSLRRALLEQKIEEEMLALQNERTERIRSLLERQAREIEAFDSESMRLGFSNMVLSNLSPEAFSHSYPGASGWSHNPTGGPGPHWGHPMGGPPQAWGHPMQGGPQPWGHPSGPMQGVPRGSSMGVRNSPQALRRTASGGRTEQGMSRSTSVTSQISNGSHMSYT
Also: in the data inactive means no Kd found up to 30 µM.

AP2-associated protein kinase 1, sequence (Q2M2I8 whole entry): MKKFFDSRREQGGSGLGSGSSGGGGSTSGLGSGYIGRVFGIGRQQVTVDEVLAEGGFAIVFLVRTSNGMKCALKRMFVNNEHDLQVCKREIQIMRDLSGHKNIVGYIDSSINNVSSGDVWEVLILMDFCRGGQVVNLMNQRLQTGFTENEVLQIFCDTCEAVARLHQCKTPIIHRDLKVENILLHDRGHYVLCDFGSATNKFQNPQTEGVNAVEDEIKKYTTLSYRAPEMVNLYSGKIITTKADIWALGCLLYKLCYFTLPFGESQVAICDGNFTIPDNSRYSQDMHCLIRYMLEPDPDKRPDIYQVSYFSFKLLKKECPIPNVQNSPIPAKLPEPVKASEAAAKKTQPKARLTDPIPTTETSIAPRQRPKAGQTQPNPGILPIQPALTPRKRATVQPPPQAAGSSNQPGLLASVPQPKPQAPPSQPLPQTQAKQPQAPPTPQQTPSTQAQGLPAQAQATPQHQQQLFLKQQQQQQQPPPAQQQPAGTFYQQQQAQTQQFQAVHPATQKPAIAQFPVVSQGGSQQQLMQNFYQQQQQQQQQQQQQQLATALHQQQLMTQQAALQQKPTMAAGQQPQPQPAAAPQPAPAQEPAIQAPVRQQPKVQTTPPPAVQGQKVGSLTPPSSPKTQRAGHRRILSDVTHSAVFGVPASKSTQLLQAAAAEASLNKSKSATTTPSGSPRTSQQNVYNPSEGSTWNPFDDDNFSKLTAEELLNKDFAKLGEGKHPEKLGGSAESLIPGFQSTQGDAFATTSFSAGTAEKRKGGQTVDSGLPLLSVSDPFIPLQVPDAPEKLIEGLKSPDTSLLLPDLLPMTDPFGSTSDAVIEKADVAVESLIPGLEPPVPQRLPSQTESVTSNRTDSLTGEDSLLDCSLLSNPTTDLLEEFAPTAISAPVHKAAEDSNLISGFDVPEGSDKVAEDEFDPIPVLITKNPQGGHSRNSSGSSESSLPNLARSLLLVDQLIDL

Structure (SMILES)	Kd [1]	Kd [2]	Kd [3]	Kd [4]	Kd [5]	Kd [6]	Kd [7]	Kd [8]	Kd [9]	Kd [10]	Kd [11]
CC(=O)Nc1cccc(-n2c(=O)n(C3CC3)c(=O)c3c(Nc4ccc(I)cc4F)n(C)c(=O)c(C)c32)c1 [TRAMETINIB]	> 30 µM (inactive)	> 30 µM (inactive)	> 30 µM (inactive)	> 30 µM (inactive)	> 30 µM (inactive)	> 30 µM (inactive)	> 30 µM (inactive)	> 30 µM (inactive)	> 30 µM (inactive)	> 30 µM (inactive)	> 30 µM (inactive)
CN1N=C(N)c2cn([C@@H]3O[C@H](COP(=O)(O)O)[C@@H](O)[C@H]3O)c3ncnc1c23 [TRICIRIBINE PHOSPHATE]	> 30 µM (inactive)	> 30 µM (inactive)	> 30 µM (inactive)	> 30 µM (inactive)	> 30 µM (inactive)	> 30 µM (inactive)	> 30 µM (inactive)	> 30 µM (inactive)	> 30 µM (inactive)	> 30 µM (inactive)	> 30 µM (inactive)
CC(C)Nc1cc(-c2c[nH]c(C(=O)N[C@H](CO)c3cccc(Cl)c3)c2)c(Cl)cn1 [ULIXERTINIB]	> 30 µM (inactive)	> 30 µM (inactive)	> 30 µM (inactive)	> 30 µM (inactive)	> 30 µM (inactive)	> 30 µM (inactive)	> 30 µM (inactive)	> 30 µM (inactive)	> 30 µM (inactive)	> 30 µM (inactive)	0.388 µM (active)

Continued, values first:

Kd [1]	Kd [2]	Kd [3]	Kd [4]	Kd [5]	Kd [6]	Kd [7]	Kd [8]	Kd [9]	Kd [10]	Kd [11]	Structure (SMILES)
> 30 µM (inactive)	> 30 µM (inactive)	> 30 µM (inactive)	> 30 µM (inactive)	> 30 µM (inactive)	> 30 µM (inactive)	> 30 µM (inactive)	> 30 µM (inactive)	> 30 µM (inactive)	> 30 µM (inactive)	> 30 µM (inactive)	CC[C@@H]1C(=O)N(C)c2cnc(Nc3ccc(C(=O)N[C@H]4CC[C@H](N5CCN(CC6CC6)CC5)CC4)cc3OC)nc2N1C(C)C [VOLASERTIB]
0.006 µM (active)	> 30 µM (inactive)	> 30 µM (inactive)	> 30 µM (inactive)	> 30 µM (inactive)	> 30 µM (inactive)	> 30 µM (inactive)	> 30 µM (inactive)	> 30 µM (inactive)	> 30 µM (inactive)	> 30 µM (inactive)	O=C(Nc1ccc(-c2ccnc(Nc3ccc(N4CCOCC4)cc3)n2)cc1)C1CCCN1 (stereo not given) [XL-019]
